Measured values as given in patent EP2816108A1, “Transformed fungus with vitamin K dependent activity” (priority 2013, dated 2014).

How the values were obtained:
[1] = system: Aspergillus nidulans strain YR 23.5; test: Vitamin K uptake in liquid cultures, viable versus heat-inactivated mycelium; assay type: cell-based; conditions: for Uptake (vitamin K / DW): active minus inactive
Description: Solid Media. Minimal media plates including vitamin K (vitamin K1, Fluka, 99%) were prepared. On top of the agar medium, sterile cellophane was placed to inhibit direct contact between the media and fungal cells. Spores of strain YR23.5 were plated in a concentration of ca. 10E+5 per plate. After 3 days of growth, harvesting was done by scraping off the mycelium from cellophane. Then the mycelium was frozen and pulverized in liquid nitrogen. The powder was subsequently lyophilised and sent for vitamin K analysis to LUFA-ITL (Landwirtschaftliche Untersuchungs- und Forschungsanstalt Institut für Tiergesundheit u Lebensmittelqualität GmbH, Kiel, Germany). Liquid media. The strain YR23.5 was pre-cultivated for 48 hours in 2 x 250 ml of liquid minimal media at 37°C, 180 rpm in Erlenmeyer flasks. Mycelium was harvested by filtration, washed and re-suspended in sterile minimal medium and separated into four equal aliquots of roughly 250 mg wet weight (corresponding to roughly 50 mg dry weight). Culture volume was set to 30 ml. Two of these cultures received different vitamin K amounts, final concentration: 0.5 mg/mL and 0.05 mg/mL vitamin K (Konakion, micelles suspension, Roche, 10 mg/mL) and were grown for further 8 hours. Mock controls were grown in parallel for 8 hours without receiving vitamin K. After the growth phase the fungal cells were inactivated by boiling in the microwave oven (3 x 5 min at max. energy level), and subsequently vitamin K was added to the mock controls (final concentration, 0.5 and 0.05 mg/mL vitamin K). The inactivated cultures were further incubated in the rotary shaker for 30 minutes. All cultures were harvested at the same time point. Harvested biomass was washed, frozen and ground in liquid nitrogen, lyophilised and sent for analysis to LUFA-ITL (Landwirtschaftliche Untersuchungs- und Forschungsanstalt Institut für Tiergesundheit u Lebensmittelqualität GmbH, Kiel, Germany).
The vitamin uptake ability of A.nidulans was studied with growth tests in Petri dishes. In addition, vit.K uptake and unspecific resorption of vit.K to the fungal cell wall was analyzed in liquid cultures. According to growth tests in Petri dishes, 752 µg of vitamin K was quantified in 100 mg DW (dry weight) of lyophilized fungal mycelium. However, due to the set-up of this experiment it remains unclear if the vitamin K is either attached to the cell wall or actively taken up into the fungal cell. To clarify this, a second growth test comparing viable and heat-inactivated mycelium was performed. […] The maximal amount of vit.K unspecifically attached to the cell wall is approximately 20 µg per 100 mg (dry weight) of fungal mycelium. The majority of vitamin K was found in viable cells. The viable mycelium was able to take up approximately 8% of the vitamin K supplied through the culture medium (Hill et al.), more precisely 1,14 mg / 100 mg mycelium from the […] vit.K supplied in total (Table 2). Table 2: Vitamin K1 updake ability of Aspergillus nidulans strain YR 23.5. Vitamin K was added to liquid cultures, the final concentration as indicated. Fungal mycelium was inactivated by boiling in a microwave oven. Values which were obtained with inactivated fungal cell mass indicate the unspecific association of vitamin K to the fungal mycelium.

[2] = system: Aspergillus nidulans strain YR23.5; test: Vitamin K growth test on solid media (Petri dishes), vitamin K quantified in lyophilised mycelium; assay type: cell-based; conditions: in 100 mg DW (dry weight) of lyophilized fungal mycelium; growth tests in Petri dishes, 3 days
Description: Solid Media. Minimal media plates including vitamin K (vitamin K1, Fluka, 99%) were prepared. On top of the agar medium, sterile cellophane was placed to inhibit direct contact between the media and fungal cells. Spores of strain YR23.5 were plated in a concentration of ca. 10E+5 per plate. After 3 days of growth, harvesting was done by scraping off the mycelium from cellophane. Then the mycelium was frozen and pulverized in liquid nitrogen. The powder was subsequently lyophilised and sent for vitamin K analysis to LUFA-ITL (Landwirtschaftliche Untersuchungs- und Forschungsanstalt Institut für Tiergesundheit u Lebensmittelqualität GmbH, Kiel, Germany). Liquid media. The strain YR23.5 was pre-cultivated for 48 hours in 2 x 250 ml of liquid minimal media at 37°C, 180 rpm in Erlenmeyer flasks. Mycelium was harvested by filtration, washed and re-suspended in sterile minimal medium and separated into four equal aliquots of roughly 250 mg wet weight (corresponding to roughly 50 mg dry weight). Culture volume was set to 30 ml. […]
The vitamin uptake ability of A.nidulans was studied with growth tests in Petri dishes. In addition, vit.K uptake and unspecific resorption of vit.K to the fungal cell wall was analyzed in liquid cultures. According to growth tests in Petri dishes, 752 µg of vitamin K was quantified in 100 mg DW (dry weight) of lyophilized fungal mycelium. […]

Compound: CC1=C(C/C=C(\C)CCC[C@H](C)CCC[C@H](C)CCCC(C)C)C(=O)c2ccccc2C1=O [vitamin K, vitamin K1]
- Uptake (vitamin K / DW) ([1]; fungal cell mass active, vitamin K added 50 µg/ml): 169,1 µg/100 mg
- Absolute quantities (vitamin K / DW) ([1]; fungal cell mass active, vitamin K added 50 µg/ml, liquid culture, 8 hours): 183,0 µg/100 mg
- Uptake (vitamin K / DW) ([1]; fungal cell mass active, vitamin K added 500 µg/ml): 1122,1 µg/100 mg
- Absolute quantities (vitamin K / DW) ([1]; fungal cell mass active, vitamin K added 500 µg/ml, liquid culture, 8 hours, DW = fungal mycelium (dry weight)): 1140,0 µg/100 mg
- Absolute quantities (vitamin K / DW) ([1]; fungal cell mass inactive (boiled in microwave oven), vitamin K added 50 µg/ml, unspecific association with mycelium): 13,9 µg/100 mg
- Absolute quantities (vitamin K / DW) ([1]; fungal cell mass inactive (boiled in microwave oven), vitamin K added 500 µg/ml, unspecific association with mycelium): 17,9 µg/100 mg
- maximal amount of vit.K unspecifically attached to the cell wall ([1]; per 100 mg (dry weight) of fungal mycelium, inactivated cultures): approximately 20 µg per 100 mg
- vitamin K taken up of the vitamin K supplied through the culture medium ([1]; viable mycelium): approximately 8%
- vitamin K taken up by viable mycelium ([1]; viable mycelium, from the 50 mg vit.K supplied in total): 1,14 mg / 100 mg mycelium
- vitamin K quantified in lyophilized fungal mycelium [2]: 752 µg
